Measured values reported in patent US11541055B2, “Inhibitors of human immunodeficiency virus replication” (ViiV Healthcare UK (No. 5) LIMITED, priority 2018, dated 2023).

Tests used:
[1] = system: recombinant NL4-3 virus (Renilla luciferase) in MT-2 cells; assay: HIV cell culture assay (antiviral activity, luciferase readout); format: cell-based; settings: Renilla, NL43
Procedure, shortened: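 Antiviral EC50 was derived via the median effect equation from luciferase signal. The signal came from MT-2 cultures infected for 4–5 days with a nef-deleted, Renilla luciferase-expressing NL4-3 reporter virus (made in 293T cells) in the presence of compound dilutions.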

[2] = Compound cytotoxicity, XTT-based colorimetric assay; format: cell-based; settings: human; uninfected MT2 cells, day 4, XTT
Procedure, shortened: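 Run under the antiviral-assay protocol but without virus. Viability was read on day 4 and CC50 values were derived from the readout.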

SMILES: Cc1ncc(-c2ccc3c(=O)n(-c4ccc(Cl)c5c(NS(C)(=O)=O)nn(C)c45)c([C@H](Cc4cc(F)cc(F)c4)NC(=O)Cn4nc(C(F)F)c5c4C(F)(F)[C@@H]4C[C@H]54)nc3c2)s1 (atropisomer, axis not shown; (P)) [Example 26, N—((S)-1-((3P)-3-(4-chloro-1-methyl-3-(methylsulfonamido)-1H-indazol-7-yl)-7-(2-methylthiazol-5-yl)-4-oxo-3,4-dihydroquinazolin-2-yl)-2-(3,5-difluorophenyl)ethyl)-2-((3bS,4aR)-3-(difluoromethyl)-5,5-difluoro-3b,4,4a,5-tetrahydro-1H-cyclopropa[3,4]cyclopenta[1,2-c]pyrazol-1-yl)acetamide]
- EC50 [1]: 0.11 nM
- CC50 at 4 days [2]: > 500 nM

SMILES: COc1cc(C)nc(-c2ccc3c(=O)n(-c4ccc(Cl)c5c(NS(C)(=O)=O)nn(C)c45)c([C@H](Cc4cc(F)cc(F)c4)NC(=O)Cn4nc(C(F)F)c5c4C(F)(F)[C@@H]4C[C@H]54)nc3c2)c1 (atropisomer, axis not shown; (P)) [Example 57, N—((S)-1-((3P)-3-(4-chloro-1-methyl-3-(methylsulfonamido)-1H-indazol-7-yl)-7-(4-methoxy-6-methylpyridin-2-yl)-4-oxo-3,4-dihydroquinazolin-2-yl)-2-(3,5-difluorophenyl)ethyl)-2-((3bS,4aR)-3-(difluoromethyl)-5,5-difluoro-3b,4,4a,5-tetrahydro-1H-cyclopropa[3,4]cyclopenta[1,2-c]pyrazol-1-yl)acetamide]
- EC50 [1]: 0.15 nM
- CC50 at 4 days [2]: > 500 nM

SMILES: Cc1nc(C)c(C)c(-c2ccc3c(=O)n(-c4ccc(Cl)c5c(NS(=O)(=O)C6CC6)nn(CC(F)F)c45)c([C@H](Cc4cc(F)cc(F)c4)NC(=O)Cn4nc(C(F)F)c5c4C(F)(F)[C@@H]4C[C@H]54)nc3c2)n1 (atropisomer, axis not shown; (P)) [Example 92, N—((S)-1-((3P)-3-(4-chloro-3-(cyclopropanesulfonamido)-1-(2,2-difluoroethyl)-1H-indazol-7-yl)-4-oxo-7-(2,5,6-trimethylpyrimidin-4-yl)-3,4-dihydroquinazolin-2-yl)-2-(3,5-difluorophenyl)ethyl)-2-((3bS,4aR)-3-(difluoromethyl)-5,5-difluoro-3b,4,4a,5-tetrahydro-1H-cyclopropa[3,4]cyclopenta[1,2-c]pyrazol-1-yl)acetamide]
- EC50 [1]: 0.1 nM
- CC50 at 4 days [2]: > 500 nM

SMILES: Cn1nc(NS(C)(=O)=O)c2c(Cl)ccc(-n3c([C@H](Cc4cc(F)cc(F)c4)NC(=O)Cn4nc(C(F)F)c5c4C(F)(F)[C@@H]4C[C@H]54)nc4cc(-c5ccccc5OC(F)(F)F)ccc4c3=O)c21 (atropisomer, axis not shown; (P)) [Example 14, N—((S)-1-((3P)-3-(4-chloro-1-methyl-3-(methylsulfonamido)-1H-indazol-7-yl)-4-oxo-7-(2-(trifluoromethoxy)phenyl)-3,4-dihydroquinazolin-2-yl)-2-(3,5-difluorophenyl)ethyl)-2-((3bS,4aR)-3-(difluoromethyl)-5,5-difluoro-3b,4,4a,5-tetrahydro-1H-cyclopropa[3,4]cyclopenta[1,2-c]pyrazol-1-yl)acetamide]
- EC50 [1]: 2.1 nM
- CC50 at 4 days [2]: > 500 nM

SMILES: Cc1ccc(-c2ccc3c(=O)n(-c4ccc(Cl)c5c(NS(=O)(=O)C6CC6)nn(CC(F)F)c45)c([C@H](Cc4cc(F)cc(F)c4)NC(=O)Cn4nc(C(F)F)c5c4C(F)(F)[C@@H]4C[C@H]54)nc3c2)nn1 (atropisomer, axis not shown; (P)) [Example 88, N—((S)-1-((3P)-3-(4-chloro-3-(cyclopropanesulfonamido)-1-(2,2-difluoroethyl)-1H-indazol-7-yl)-7-(6-methylpyridazin-3-yl)-4-oxo-3,4-dihydroquinazolin-2-yl)-2-(3,5-difluorophenyl)ethyl)-2-((3bS,4aR)-3-(difluoromethyl)-5,5-difluoro-3b,4,4a,5-tetrahydro-1H-cyclopropa[3,4]cyclopenta[1,2-c]pyrazol-1-yl)acetamide]
- EC50 [1]: 0.058 nM
- CC50 at 4 days [2]: > 500 nM

SMILES: Cc1ccc(F)c(-c2ccc3c(=O)n(-c4ccc(Cl)c5c(NS(C)(=O)=O)nn(CC(F)(F)F)c45)c([C@H](Cc4cc(F)cc(F)c4)NC(=O)Cn4nc(C(F)F)c5c4C(F)(F)[C@@H]4C[C@H]54)nc3c2)n1 (atropisomer, axis not shown) [Example 113]
- EC50 [1]: 0.1 nM
- CC50 at 4 days [2]: > 500 nM

SMILES: Cc1ccc(-c2ccc3c(=O)n(-c4ccc(Cl)c5c(NS(C)(=O)=O)nn(CC(F)(F)F)c45)c([C@H](Cc4cc(F)cc(F)c4)NC(=O)Cn4nc(C(F)F)c5c4C(F)(F)[C@@H]4C[C@H]54)nc3c2)nn1 (atropisomer, axis not shown) [Example 106, N-[(1S)-1-{3-[4-chloro-3-methanesulfonamido-1-(2,2,2-trifluoroethyl)-1H-indazol-7-yl]-7-(6-methylpyridazin-3-yl)-4-oxo-3,4-dihydroquinazolin-2-yl}-2-(3,5-difluorophenyl)ethyl]-2-[(2S,4R)-9-(difluoromethyl)-5,5-difluoro-7,8-diazatricyclo[4.3.0.0^2,^4]nona-1(6),8-dien-7-yl]acetamide]
- EC50 [1]: 0.043 nM
- CC50 at 4 days [2]: > 500 nM

SMILES: CCc1cc(C)nc(-c2ccc3c(=O)n(-c4ccc(Cl)c5c(NS(C)(=O)=O)nn(CC(F)F)c45)c([C@H](Cc4cc(F)cc(F)c4)NC(=O)Cn4nc(C(F)F)c5c4C(F)(F)[C@@H]4C[C@H]54)nc3c2)n1 (atropisomer, axis not shown) [Example 126, N-[(1S)-1-{3-[4-chloro-1-(2,2-difluoroethyl)-3-methanesulfonamido-1H-indazol-7-yl]-7-(4-ethy1-6-methylpyrimidin-2-y1)-4-oxo-3,4-dihydroquinazolin-2-yl}-2-(3,5-difluorophenyl)ethyl]-2-[(2S,4R)-9-(difluoromethyl)-5,5-difluoro-7,8-diazatricyclo[4.3.0.0^2,^4]nona-1(6),8-dien-7-yl]acetamide]
- EC50 [1]: 0.12 nM
- CC50 at 4 days [2]: > 500 nM

SMILES: Cc1nc(-c2ccc3c(=O)n(-c4ccc(Cl)c5c(NS(C)(=O)=O)nn(C)c45)c([C@H](Cc4cc(F)cc(F)c4)NC(=O)Cn4nc(C(F)F)c5c4C(F)(F)[C@@H]4C[C@H]54)nc3c2)cc(C(C)C)n1 (atropisomer, axis not shown; (P)) [Example 66, N—((S)-1-((3P)-3-(4-chloro-1-methyl-3-(methylsulfonamido)-1H-indazol-7-yl)-7-(6-isopropyl-2-methylpyrimidin-4-yl)-4-oxo-3,4-dihydroquinazolin-2-yl)-2-(3,5-difluorophenyl)ethyl)-2-((3bS,4aR)-3-(difluoromethyl)-5,5-difluoro-3b,4,4a,5-tetrahydro-1H-cyclopropa[3,4]cyclopenta[1,2-c]pyrazol-1-yl)acetamide]
- EC50 [1]: 0.15 nM
- CC50 at 4 days [2]: > 500 nM

SMILES: COc1ncc(-c2ccc3c(=O)n(-c4ccc(Cl)c5c(NS(C)(=O)=O)nn(C)c45)c([C@H](Cc4cc(F)cc(F)c4)NC(=O)Cn4nc(C(F)F)c5c4C(F)(F)[C@@H]4C[C@H]54)nc3c2)cn1 (atropisomer, axis not shown; (P)) [Example 39, N—((S)-1-((3P)-3-(4-chloro-1-methyl-3-(methylsulfonamido)-1H-indazol-7-yl)-7-(2-methoxypyrimidin-5-yl)-4-oxo-3,4-dihydroquinazolin-2-yl)-2-(3,5-difluorophenyl)ethyl)-2-((3bS,4aR)-3-(difluoromethyl)-5,5-difluoro-3b,4,4a,5-tetrahydro-1H-cyclopropa[3,4]cyclopenta[1,2-c]pyrazol-1-yl)acetamide]
- EC50 [1]: 0.042 nM
- CC50 at 4 days [2]: > 500 nM

SMILES: Cc1cc(C)nc(-c2ccc3c(=O)n(-c4ccc(Cl)c5c(NS(C)(=O)=O)nn(C)c45)c([C@H](Cc4cc(F)cc(F)c4)NC(=O)Cn4nc(C(F)F)c5c4C(F)(F)[C@@H]4C[C@H]54)nc3c2)c1 (atropisomer, axis not shown; (P)) [Example 1, N—((S)-1-((3P)-3-(4-chloro-1-methyl-3-(methylsulfonamido)-1H-indazol-7-yl)-7-(4,6-dimethylpyridin-2-yl)-4-oxo-3,4-dihydroquinazolin-2-yl)-2-(3,5-difluorophenyl)ethyl)-2-((3bS,4aR)-3-(difluoromethyl)-5,5-difluoro-3b,4,4a,5-tetrahydro-1H-cyclopropa[3,4]cyclopenta[1,2-c]pyrazol-1-yl)acetamide]
- EC50 [1]: 0.15 nM
- CC50 at 4 days [2]: > 500 nM

SMILES: CCc1nccnc1-c1ccc2c(=O)n(-c3ccc(Cl)c4c(NS(C)(=O)=O)nn(C)c34)c([C@H](Cc3cc(F)cc(F)c3)NC(=O)Cn3nc(C(F)F)c4c3C(F)(F)[C@@H]3C[C@H]43)nc2c1 (atropisomer, axis not shown; (P)) [Example 17, N—((S)-1-((3P)-3-(4-chloro-1-methyl-3-(methylsulfonamido)-1H-indazol-7-yl)-7-(3-ethylpyrazin-2-yl)-4-oxo-3,4-dihydroquinazolin-2-yl)-2-(3,5-difluorophenyl)ethyl)-2-((3bS,4aR)-3-(difluoromethyl)-5,5-difluoro-3b,4,4a,5-tetrahydro-1H-cyclopropa[3,4]cyclopenta[1,2-c]pyrazol-1-yl)acetamide]
- EC50 [1]: 0.11 nM
- CC50 at 4 days [2]: > 500 nM

SMILES: COc1ccc(-c2ccc3c(=O)n(-c4ccc(Cl)c5c(NS(C)(=O)=O)nn(CC(F)(F)F)c45)c([C@H](Cc4cc(F)cc(F)c4)NC(=O)Cn4nc(C(F)F)c5c4C(F)(F)[C@@H]4C[C@H]54)nc3c2)nn1 (atropisomer, axis not shown) [Example 110, N-[(1S)-1-{3-[4-chloro-3-methanesulfonamido-1-(2,2,2-trifluoroethyl)-1H-indazol-7-yl]-7-(6-methoxypyridazin-3-yl)-4-oxo-3,4-dihydroquinazolin-2-yl}-2-(3,5-difluorophenyl)ethyl]-2-[(2S,4R)-9-(difluoromethyl)-5,5-difluoro-7,8-diazatricyclo[4.3.0.0^2,^4]nona-1(6),8-dien-7-yl]acetamide]
- EC50 [1]: 0.071 nM
- CC50 at 4 days [2]: > 500 nM
